Results: patent US8247211B2, “Glycopeptide antibiotics” (American Cyanamid Company, priority 2001, dated 2012)
Values after ≈ are worked out from the molar mass of the structure shown.

Experiments:
Assay in all cases: In vitro antibacterial evaluation: minimum inhibitory concentration (MIC), broth dilution method
Assay type in all cases: cell-based
Enterococcus sp. = conditions: 18 hours at 35° C.
In short: (§1)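 An MIC is reported for each organism as the least concentration giving inhibition, using broth dilution over 64-0.06 μg/mL with a 5×10^5 CFU/mL inoculum.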

Escherichia coli = Escherichia coli (GC 4560); 18 hours at 35° C.
In short: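 NCCLS M7-A2 broth dilution with Mueller-Hinton II, testing 64-0.06 μg/mL antibiotic against 5×10^5 CFU/mL inocula. Test strains include recent methicillin-, penicillin- or vancomycin-resistant clinical isolates. MIC is the lowest concentration preventing growth.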

Staphylococcus sp. = test system: Staphylococcus sp.
In short: as §1

Streptococcus sp. = conditions: 18 hours at 35° C.
In short: as §1

[1] = broth dilution, inoculum 5×10^5 CFU/mL

Q: Which results are given for `CC(c1ccccc1)C1NC(=O)CNC(=O)C(CO)NC(=O)C(C(O)C2CNC(=N)N2C2OC(CO)C(O)C(O)C2O)NC(=O)C(C(O)C2CNC(=N)N2)NC(=O)C(Cc2ccc(OC3OC(CO)C(OC4OC5COC6(CCCCC6C)OC5C(O)C4O)C(O)C3O)cc2)NC1=O` (stereo not drawn) [Example 204, Cyclo[glycyl-β-methylphenylalanyl-O-[4-O-[4,6-O-(2-methylcyclohexylidene)hexopyranosyl]hexopyranosyl]tyrosyl-3-(2-iminoimidazolidin-4-yl)seryl-3-(3-hexopyranosyl-2-iminoimidazolidin-4-yl)serylseryl]]?
A: MIC Enterococcus avium (GC 4558) (Enterococcus sp.; Enterococcus avium (GC 4558)): 16 µg/mL (≈ 11.5 µM); MIC Enterococcus faecalis (ATCC 29212) (Enterococcus sp.; Enterococcus faecalis (ATCC 29212)): 16 µg/mL (≈ 11.5 µM); MIC Enterococcus faecalis (GC 2242) (Enterococcus sp.; Enterococcus faecalis (GC 2242)): 16 µg/mL (≈ 11.5 µM); MIC Enterococcus faecalis (GC 2691) (Enterococcus sp.; Enterococcus faecalis (GC 2691)): 16 µg/mL (≈ 11.5 µM); MIC Enterococcus faecalis (GC 3059) (Enterococcus sp.; Enterococcus faecalis (GC 3059)): 16 µg/mL (≈ 11.5 µM); MIC Enterococcus faecalis (GC 4552) (Enterococcus sp.; Enterococcus faecalis (GC 4552)): 16 µg/mL (≈ 11.5 µM); MIC Enterococcus faecalis (GC 4553) (Enterococcus sp.; Enterococcus faecalis (GC 4553)): 16 µg/mL (≈ 11.5 µM); MIC Enterococcus faecalis (GC 4554) (Enterococcus sp.; Enterococcus faecalis (GC 4554)): 16 µg/mL (≈ 11.5 µM); MIC Enterococcus faecalis (GC 6189) (Enterococcus sp.; Enterococcus faecalis (GC 6189)): 16 µg/mL (≈ 11.5 µM); MIC Enterococcus faecium (GC 2243) (Enterococcus sp.; Enterococcus faecium (GC 2243)): 16 µg/mL (≈ 11.5 µM); MIC Enterococcus faecium (GC 4556) (Enterococcus sp.; Enterococcus faecium (GC 4556)): 16 µg/mL (≈ 11.5 µM); MIC Enterococcus faecium (GC 4557) (Enterococcus sp.; Enterococcus faecium (GC 4557)): 8 µg/mL (≈ 5.76 µM); MIC Enterococcus avium (GC 4558) (Enterococcus sp.; [1]): 16 µg/mL (≈ 11.5 µM); MIC Enterococcus faecalis (ATCC 29212) (Enterococcus sp.; [1]): 16 µg/mL (≈ 11.5 µM); MIC Enterococcus faecalis (GC 2242) (Enterococcus sp.; [1]): 16 µg/mL (≈ 11.5 µM); MIC Enterococcus faecalis (GC 2691) (Enterococcus sp.; [1]): 16 µg/mL (≈ 11.5 µM); MIC Enterococcus faecalis (GC 3059) (Enterococcus sp.; [1]): 16 µg/mL (≈ 11.5 µM); MIC Enterococcus faecalis (GC 4552) (Enterococcus sp.; [1]): 16 µg/mL (≈ 11.5 µM); MIC Enterococcus faecalis (GC 4553) (Enterococcus sp.; [1]): 16 µg/mL (≈ 11.5 µM); MIC Enterococcus faecalis (GC 4554) (Enterococcus sp.; [1]): 16 µg/mL (≈ 11.5 µM); MIC Enterococcus faecalis (GC 6189) (Enterococcus sp.; [1]): 16 µg/mL (≈ 11.5 µM); MIC Enterococcus faecium (GC 2243) (Enterococcus sp.; [1]): 16 µg/mL (≈ 11.5 µM); MIC Enterococcus faecium (GC 4556) (Enterococcus sp.; [1]): 16 µg/mL (≈ 11.5 µM); MIC Enterococcus faecium (GC 4557) (Enterococcus sp.; [1]): 8 µg/mL (≈ 5.76 µM); MIC Escherichia coli (GC 4560) (Escherichia coli): 4 µg/mL (≈ 2.88 µM); MIC Staphylococcus aureus (ATCC 29213) (Staphylococcus sp.; strain ATCC 29213): 4 µg/mL (≈ 2.88 µM); MIC Staphylococcus aureus (GC 1131) (Staphylococcus sp.; strain GC 1131): 8 µg/mL (≈ 5.76 µM); MIC Staphylococcus aureus (GC 3051) (Staphylococcus sp.; strain GC 3051): 4 µg/mL (≈ 2.88 µM); MIC Staphylococcus aureus (GC 3053) (Staphylococcus sp.; strain GC 3053): 8 µg/mL (≈ 5.76 µM); MIC Staphylococcus aureus (GC 4541) (Staphylococcus sp.; strain GC 4541): 4 µg/mL (≈ 2.88 µM); MIC Staphylococcus aureus (GC 4542) (Staphylococcus sp.; strain GC 4542): 4 µg/mL (≈ 2.88 µM); MIC Staphylococcus aureus-SMITH (GC 4543) (Staphylococcus sp.; strain GC 4543): 4 µg/mL (≈ 2.88 µM); MIC Staphylococcus aureus (GC 4544) (Staphylococcus sp.; strain GC 4544): 8 µg/mL (≈ 5.76 µM); MIC Staphylococcus aureus (GC 4545) (Staphylococcus sp.; strain GC 4545): 4 µg/mL (≈ 2.88 µM); MIC Staphylococcus haemolyticus (GC 4546) (Staphylococcus sp.; strain GC 4546): 2 µg/mL (≈ 1.44 µM); MIC Coagulase Negative Staphylococcus (GC 4547) (Staphylococcus sp.; strain GC 4547): 4 µg/mL (≈ 2.88 µM); MIC Coagulase Negative Staphylococcus (GC 4548) (Staphylococcus sp.; strain GC 4548): 4 µg/mL (≈ 2.88 µM); MIC Coagulase Negative Staphylococcus (GC 4549) (Staphylococcus sp.; strain GC 4549): 2 µg/mL (≈ 1.44 µM); MIC Coagulase Negative Staphylococcus (GC 4551) (Staphylococcus sp.; strain GC 4551): 4 µg/mL (≈ 2.88 µM); MIC Streptococcus agalactiae (GC 4564) (Streptococcus sp.; Streptococcus agalactiae (GC 4564)): 1 µg/mL (≈ 0.72 µM); MIC Streptococcus pneumoniae (ATCC 6301) (Streptococcus sp.; Streptococcus pneumoniae (ATCC 6301)): 0.5 µg/mL (≈ 0.36 µM); MIC Streptococcus pneumoniae (GC 1894) (Streptococcus sp.; Streptococcus pneumoniae (GC 1894)): 0.25 µg/mL (≈ 0.18 µM); MIC Streptococcus pneumoniae (GC 4565) (Streptococcus sp.; Streptococcus pneumoniae (GC 4565)): 0.5 µg/mL (≈ 0.36 µM); MIC Streptococcus pyogenes (GC 4563) (Streptococcus sp.; Streptococcus pyogenes (GC 4563)): 0.5 µg/mL (≈ 0.36 µM); MIC Streptococcus agalactiae (GC 4564) (Streptococcus sp.; [1]): 1 µg/mL (≈ 0.72 µM); MIC Streptococcus pneumoniae (ATCC 6301) (Streptococcus sp.; [1]): 0.5 µg/mL (≈ 0.36 µM); MIC Streptococcus pneumoniae (GC 1894) (Streptococcus sp.; [1]): 0.25 µg/mL (≈ 0.18 µM); MIC Streptococcus pneumoniae (GC 4565) (Streptococcus sp.; [1]): 0.5 µg/mL (≈ 0.36 µM); MIC Streptococcus pyogenes (GC 4563) (Streptococcus sp.; [1]): 0.5 µg/mL (≈ 0.36 µM)
